{
  "source": "paper PMC11709109",
  "about": "“Identification of AS1842856 as a novel small‐molecule GSK3α/β inhibitor against Tauopathy by accelerating GSK3α/β exocytosis” (Aging Cell, 2024)",
  "key": {"GSK3α": {"target": "T1, GSK3α (Homo sapiens, UniProt P49840)", "T1 construct": "gene GSK3A; recombinant, His tag (CLOUD-CLONE RPA360Hu01)", "T1 sequence (P49840 2-483)": "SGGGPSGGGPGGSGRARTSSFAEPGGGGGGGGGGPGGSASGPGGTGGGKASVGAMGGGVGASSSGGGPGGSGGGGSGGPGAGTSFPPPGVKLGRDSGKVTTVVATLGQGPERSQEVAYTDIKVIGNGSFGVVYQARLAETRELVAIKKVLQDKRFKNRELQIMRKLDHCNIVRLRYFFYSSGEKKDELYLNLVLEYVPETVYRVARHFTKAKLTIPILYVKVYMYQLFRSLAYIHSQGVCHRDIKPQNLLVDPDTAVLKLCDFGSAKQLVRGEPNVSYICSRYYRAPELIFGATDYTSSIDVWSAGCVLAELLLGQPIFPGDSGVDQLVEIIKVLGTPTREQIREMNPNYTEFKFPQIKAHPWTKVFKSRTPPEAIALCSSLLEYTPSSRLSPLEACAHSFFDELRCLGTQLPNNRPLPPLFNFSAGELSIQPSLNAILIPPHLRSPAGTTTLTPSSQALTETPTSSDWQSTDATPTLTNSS", "assay": "bio-layer interferometry (Octet K2, Ni-NTA); supported by CETSA in N2a lysate", "format": "binding"}, "GSK3β": {"target": "T2, GSK3β (Homo sapiens, UniProt P49841)", "T2 construct": "gene GSK3B; recombinant, His tag (Sino Biological 10044-H07B)", "assay": "bio-layer interferometry (Octet K2, Ni-NTA); supported by CETSA in N2a lysate", "format": "binding"}},
  "data": [
    {"smiles": "CCn1cc(C(=O)O)c(=O)c2c(N)c(F)c(NC3CCCCC3)cc21", "note": "[AS, AS1842856]", "values": [
      {"measurement": "Kd", "setting": "GSK3α", "value": 15.8, "unit": "µM"},
      {"measurement": "Kd", "setting": "GSK3β", "value": 40.9, "unit": "µM"}
    ]}
  ]
}
